How the values were obtained:
KB cell = test: MTS assay, growth inhibition of KB cells; format: cell-based; conditions: Homo sapiens, at 10 μM concentration, incubated for 72 h, read-out: Inhibition rate (%) (growth inhibition rate of MTS assay)
Experimental: MTS assay was performed in determining the growth inhibition of cancer cells. MTS ((3-(4,5-dimethylthiazol-2-yl)-5-(3-carboxymethoxyphenyl)-2-(4-sulfophenyl)-2H-tetrazolium)), in the presence of phenazine methosulfate (PMS) and reductases, produces a formazan product that has an absorbance maximum at 490-500 nm. MTS assays (and closely related MTT assay) are commonly used to measure cell viabilities or survivals.
Briefly, KB/Hela, NCI-H460, A375, Colo205, HCT-116, U937, MCF-7, MDA-MB-231, A549, H1975 cells were seeded into 96-well plate at 4000, 4000, 2000, 2000, 2000 cells/well. After 24 h for attachment, test compound was added into each well and incubated for 72 h. A total of 20 μl of MTS reaction reagent containing the MTS (Promega, Madison, Wis.) and PMS in a ratio of 20:1 was added into each well to react with dehydrogenase enzyme in survival cells. After 3 h, the absorbance at 490 nm was monitored using Emax precision microplate reader (Molecular Devices, Sunnyvale, Calif.).
The growth inhibition rate of MTS assay at KB cell of these compounds (at 10 μM concentration) are list in Table 5.

biotinylated tubulin = test: Colchicine competitive-binding assay; conditions: at 10 μM concentration, 3H-colchicine; for binding rate (%) (colchicine competitive-binding): left column pair of Table 7; for Inhibition rate (%) (colchicine competitive-binding): right column pair of Table 7
Experimental: The colchicine competitive-binding assay was done by using the Colchicine Site competitive Assay Kit (Cytoskeleton, Inc.), streptavidin-coated yttrium SPA beads(GE Healthcare, Inc.), and ^3H-colchicine(PerkinElmer, Inc.). Briefly, the binding mixture includes 1 μL^3H-labeled ligand (specific activity […]), and 1 μg biotinylated tubulin and 88 μg SPA beads in 200 μL assay buffer. The test compound and ^3H-labeled ligand were added before tubulin. After incubation at 37° C. for 2 hours, the SPA beads were allowed to settle down for 24 hours at room temperature, and scintillation counting was done on the TopCount Microplate Scintillation Counter.

porcine brain tubulin = test: Tubulin polymerization assay; format: biochemical; conditions: at 10 μM concentration
Experimental: In vitro tubulin polymerization assay was performed by using the Tubulin Polymerization Assay Kit (Cytoskeleton, Inc., Denver, Colo.) in a 96-well format, which used the polymerization of porcine brain tubulin in vitro in the presence of varying concentrations of the test compounds. Fluorescence measurements were obtained at 1-minute intervals over a 31-minute period. Fluorescent measurements were performed using excitation at 365 nm, and emission was measured at 440 nm using a Packard Fusion Alpha Microplate Analyzer. Data were analyzed as relative fluorescent units by GraphPad Prism 5 Demo.

| binding rate (%) (colchicine competitive-binding) (biotinylated tubulin) | Inhibition rate (%) (colchicine competitive-binding) (biotinylated tubulin) | SMILES | inhibition at 10 µM (KB cell) | Inhibition rate (%) of tubulin polymerization (porcine brain tubulin) |
| --- | --- | --- | --- | --- |
| 50.2% | – | Cc1ccc(CCC(=O)Nc2ncc(Cc3ccccc3)s2)o1 [Compound 1, N-(5-Benzyl-thiazol-2-yl)-3-(5-methyl-furan-2-yl)-propionamide] | 95.4% | – |
| 58.6% | – | O=C(CCc1cccnc1)Nc1ncc(Cc2ccc(F)cc2)s1 [Compound 4, N-[5-(4-Fluoro-benzyl)-thiazol-2-yl]-3-pyridin-3-yl-propionamide] | 93.9% | – |
| 63.8% | – | COc1ccc(Cc2cnc(NC(=O)CCc3ccc(C)o3)s2)cc1 [Compound 5, N-[5-(4-Methoxy-benzyl)-thiazol-2-yl]-3-(5-methyl-furan-2-yl)-propionamide] | 95.8% | – |
| 63.6% | – | O=C(CCc1ccccc1)Nc1ncc(Cc2ccc3c(c2)OCO3)s1 [Compound 6, N-(5-Benzo[1,3]dioxol-5-ylmethyl-thiazol-2-yl)-3-phenyl-propionamide] | 95.1% | – |
| 77.5% | – | COc1ccc(Cc2cnc(NC(=O)CCc3ccccc3)s2)cc1 [Compound 9, N-[5-(4-Methoxy-benzyl)-thiazol-2-yl]-3-phenyl-propionamide] | 96.1% | 79.0% |
| 88.6% | – | COc1ccc(Cc2cnc(NC(=O)CCc3cccnc3)s2)cc1 [Compound 10, N-[5-(4-Methoxy-benzyl)-thiazol-2-yl]-3-pyridin-3-yl-propionamide] | 94.4% | 88.7% |
| 62.4% | – | COc1ccc(Cc2cnc(NC(=O)CCc3ccc(F)cc3)s2)cc1 [Compound 11, 3-(4-Fluoro-phenyl)-N-[5-(4-methoxy-benzyl)-thiazol-2-yl]-propionamide] | 95.1% | – |
| 51.2% | – | O=C(CCc1ccc(F)cc1)Nc1ncc(Cc2ccc(F)cc2)s1 [Compound 12, N-[5-(4-Fluoro-benzyl)-thiazol-2-yl]-3-(4-fluoro-phenyl)-propionamide] | 96% | – |
| 60.0% | – | COc1ccc2cc(Cc3cnc(NC(=O)CCc4ccc(F)cc4)s3)ccc2c1 [Compound 13, 3-(4-Fluoro-phenyl)-N-[5-(6-methoxy-naphthalen-2-ylmethyl)-thiazol-2-yl]-propionamide] | 94.6% | – |
| 64.9% | – | COc1cc(Cc2cnc(NC(=O)CCc3ccccc3)s2)cc(OC)c1OC [Compound 49, 3-Phenyl-N-[5-(3,4,5-trimethoxy-benzyl)-thiazol-2-yl]-propionamide] | 95.1% | – |
| 73.3% | – | COc1ccc(Cc2cnc(NC(=O)CCc3ccc(F)cc3)s2)c(OC)c1OC [Compound 54, 3-(4-Fluoro-phenyl)-N-[5-(2,3,4-trimethoxy-benzyl)-thiazol-2-yl]-propionamide] | 96.1% | – |
| 88.3% | – | COc1ccc(Cc2cnc(NC(=O)CCc3ccc(C)o3)s2)c(OC)c1OC [Compound 56, 3-(5-Methyl-furan-2-yl)-N-[5-(2,3,4-trimethoxy-benzyl)-thiazol-2-yl]-propionamide] | 94.7% | – |
| – | – | O=C(CCc1ccccc1)Nc1ncc(-c2ccc(F)cc2)s1 [Compound 58, N-[5-(4-Fluoro-phenyl)-thiazol-2-yl]-3-phenyl-propionamide] | 85.8% | 55.1% |
| 76.3% | – | Cc1nc(NC(=O)CCc2ccccc2)sc1-c1ccc(F)cc1 [Compound 59, N-[5-(4-Fluoro-phenyl)-4-methyl-thiazol-2-yl]-3-phenyl-propionamide] | 93.5% | – |
| 64.6% | – | Cc1nc(NC(=O)CCc2ccccc2)sc1Cc1ccc2c(c1)OCO2 [Compound 60, N-(5-Benzo[1,3]dioxol-5-ylmethyl-4-methyl-thiazol-2-yl)-3-phenyl-propionamide] | 95.1% | – |
| 57.9% | – | Cc1nc(NC(=O)CCc2ccc(F)cc2)sc1Cc1ccc2c(c1)OCO2 [Compound 61, N-(5-Benzo[1,3]dioxol-5-ylmethyl-4-methyl-thiazol-2-yl)-3-(4-fluoro-phenyl)-propionamide] | 90.9% | – |

| binding rate (%) (colchicine competitive-binding) (biotinylated tubulin) | Inhibition rate (%) (colchicine competitive-binding) (biotinylated tubulin) | SMILES | inhibition at 10 µM (KB cell) | Inhibition rate (%) of tubulin polymerization (porcine brain tubulin) |
| --- | --- | --- | --- | --- |
| 55.3% | – | Cc1nc(NC(=O)CCc2cccnc2)sc1Cc1ccc2c(c1)OCO2 [Compound 62, N-(5-Benzo[1,3]dioxol-5-ylmethyl-4-methyl-thiazol-2-yl)-3-pyridin-3-yl-propionamide] | 96% | – |
| 63.3% | – | COc1cccc(CCC(=O)Nc2nc(C)c(Cc3ccc4c(c3)OCO4)s2)c1 [Compound 63, N-(5-Benzo[1,3]dioxol-5-ylmethyl-4-methyl-thiazol-2-yl)-3-(3-methoxy-phenyl)-propionamide] | 95.6% | – |
| 54.4% | – | Cc1ccc(CCC(=O)Nc2ncc(Oc3ccc(F)cc3)s2)o1 [Compound 64, N-[5-(4-Fluoro-phenoxy)-thiazol-2-yl]-3-(5-methyl-furan-2-yl)-propionamide] | 95.9% | – |
| – | 70.0% | O=C(CCc1ccccc1)Nc1ccc(Sc2ccccc2)cn1 [Compound 81, 3-Phenyl-N-(5-phenylsulfanyl-pyridin-2-yl)-propionamide] | 95.1% | – |
| – | 54.6% | Cc1ccc(CCC(=O)Nc2ncc(-n3ccnc3)cc2C)o1 [Compound 87, N-(5-Imidazol-1-yl-3-methyl-pyridin-2-yl)-3-(5-methyl-furan-2-yl)-propionamide] | 93.9% | – |
| – | 57.2% | O=C(/C=C/c1ccccc1)Nc1ncc(-c2ccccc2)cn1 [Compound 93, 3-Phenyl-N-(5-phenyl-pyrimidin-2-yl)-acrylamide] | 96% | – |
| – | 57.5% | O=C(/C=C/c1ccccc1)Nc1ncc(-c2ccc(F)cc2)cn1 [Compound 98, N-[5-(4-Fluoro-phenyl)-pyrimidin-2-yl]-3-phenyl-acrylamide] | 81.9% | – |
| – | 56.9% | COc1cccc(-c2cnc(NC(=O)/C=C/c3ccccc3)nc2)c1OC [Compound 101, N-[5-(2,3-Dimethoxy-phenyl)-pyrimidin-2-yl]-3-phenyl-acrylamide] | 97.5% | – |
| – | 81.1% | Cc1ccc(CCC(=O)Nc2ncc(-c3cccc4ccccc34)cn2)o1 [Compound 103, 3-(5-Methyl-furan-2-yl)-N-(5-naphthalen-1-yl-pyrimidin-2-yl)-propionamide] | 94.1% | – |
| – | 61.3% | O=C(CCc1ccccc1)Nc1ncc(-c2cccc3ccccc23)cn1 [Compound 104, N-(5-Naphthalen-1-yl-pyrimidin-2-yl)-3-phenyl-propionamide] | 96.6% | – |
| – | – | COc1cccc(-c2ccc(NC(=O)CCc3ccc(C)o3)nc2)c1OC [Compound 115, N-[5-(2,3-Dimethoxy-phenyl)-pyridin-2-yl]-3-(5-methyl-furan-2-yl)-propionamide] | 95.8% | – |
| – | – | COc1cccc(-c2ccc(NC(=O)CCc3ccccc3)nc2)c1OC [Compound 116, N-[5-(2,3-Dimethoxy-phenyl)-pyridin-2-yl]-3-phenyl-propionamide] | 94.1% | – |
| – | – | Cc1cc(-c2ccccc2)cnc1NC(=O)CCc1ccccc1 [Compound 117, N-(3-Methyl-5-phenyl-pyridin-2-yl)-3-phenyl-propionamide] | 94.6% | – |
| – | 58.2% | Cc1cc(-c2ccc(N(C)C)cc2)cnc1NC(=O)CCc1ccccc1 [Compound 119, N-[5-(4-Dimethylamino-phenyl)-3-methyl-pyridin-2-yl]-3-phenyl-propionamide] | 95.1% | – |
| – | – | Cc1cc(-c2ccc(N(C)C)cc2)cnc1NC(=O)C(C)Cc1ccccc1 (stereo not shown) [Compound 121, N-[5-(4-Dimethylamino-phenyl)-3-methyl-pyridin-2-yl]-2-methyl-3-phenyl-propionamide] | 93.5% | – |
| – | – | Cc1ccc(CCC(=O)Nc2cnc(-c3ccccc3)cn2)o1 [Compound 122, 3-(5-Methyl-furan-2-yl)-N-(5-phenyl-pyrazin-2-yl)-propionamide] | 80.8% | – |

Reference: patent publication US8883793B2, “Tubulin inhibitors and methods of using the same” (Development Center for Biotechnology, priority 2010, dated 2014)
